# Literature values as cited in US7550162B2, “Labiatae herb extracts and hop extracts for extending the color life and inhibiting the growth of microorganisms in fresh meat, fish and poultry” (Kalsec Incorporated, priority 2001, dated 2009).
# Like-named read-outs stand apart in the source and are kept apart here.
# What was measured:
# Gram-positive organisms = conditions: value also given in ppm
# Gram positive organisms = conditions: in culture
# Listeria = conditions: soy broth
SMILES,Minimum inhibitory concentration (Gram-positive organisms) [mg/L],concentration inhibiting Listeria (Listeria),further results
"CC(C)=CCC1=C(O)C(C(=O)CC(C)C)=C(O)C(CC=C(C)C)(CC=C(C)C)C1=O [Lupulone (beta acids), Lupulone]",1,,MIC (Gram positive organisms): 1-10 ppm
"CC(C)CCC(=O)C1(O)C(O)=C(C(=O)CC(C)C)C(=O)C1CCC(C)C (centres unmarked) [Tetrahydroisohumulone, tetrahydroisohumulone]",,6-18 ppm,
"CC(C)CCC1=C(O)C(C(=O)C(C)C)=C(O)C(CCC(C)C)(CCC(C)C)C1=O [hexahydrocolulupone, hexahydrocolupulone]",,0.4 ppm,
CC(C)=CCC1=C(O)C(C(=O)CC(C)C)=C(O)C1O (centres unmarked) [humulinic acid],250,,
CC(C)=CCC(=O)C1(O)C(O)=C(C(=O)CC(C)C)C(=O)C1CC=C(C)C (centres unmarked) [isohumulone],25,,relative activity (beer spoilage organisms; pH 3.8): 226; relative activity (beer spoilage organisms; pH 4.6): 42
